Data reported in patent US7173004B2, “Macrocyclic isoquinoline peptide inhibitors of hepatitis C virus” (Bristol-Myers Squibb Company, priority 2003, dated 2007).

Biological target: T1, HCV NS3/4A protease complex, BMS strain (genotype 1a) (UniProt P27958, C1454S/C1711G, species not given/STRAIN_BMS)
T1 construct: b1001: DNA encoding the recombinant HCV NS3/4A protease complex (amino acids 1027 to 1711) ... a three-lysine solubilizing tail was added at the 3′-end of the NS4A coding region; fused on or other part: Three-lysine solubilising tail at the C-terminus of NS4A; A His tag is implied by the pET21b vector and Ni-NTA purification
Assay: Recombinant HCV NS3/4A protease complex FRET peptide assay, BMS strain
Assay type: biochemical
Text: Recombinant HCV NS3/4A Protease Complex FRET Peptide Assay
The purpose of this in vitro assay was to measure the inhibition of HCV NS3 protease complexes, derived from the BMS strain, H77C strain or J416S strain, as described below, by compounds of the present invention. This assay provides an indication of how effective compounds of the present invention would be in inhibiting HCV proteolytic activity.
Serum from an HCV-infected patient was obtained from Dr. T. Wright, San Francisco Hospital. An engineered full-length cDNA (compliment deoxyribonucleic acid) template of the HCV genome (BMS strain) was constructed from DNA fragments obtained by reverse transcription-PCR (RT-PCR) of serum RNA (ribonucleic acid) and using primers selected on the basis of homology between other genotype 1a strains. From the determination of the entire genome sequence, a genotype 1a was assigned to the HCV isolate according to the classification of Simmonds et al. (See P Simmonds, K A Rose, S Graham, S W Chan, F McOmish, B C Dow, E A Follett, P L Yap and H Marsden, J. Clin. Microbiol., 31(6), 1493–1503 (1993)). […] The infectious clones, H77C (1a genotype) and J4L6S (1b genotype) were obtained from R. Purcell (NIH) and the sequences are published in Genbank (AAB67036, see Yanagi, M., Purcell, R. H., Emerson, S. U. and Bukh, J. Proc. Natl. Acad. Sci. U.S.A. 94(16), 8738–8743 (1997); AF054247, see Yanagi, M., St Claire, M., Shapiro, M., Emerson, S. U., Purcell, R. H. and Bukh, J, Virology 244 (1), 161–172. (1998)).
The H77C and J4L6S strains were used for production of recombinant NS3/4A protease complexes. DNA encoding the recombinant HCV NS3/4A protease complex (amino acids 1027 to 1711) for these strains were manipulated as described by P. Gallinari et al. (see Gallinari P, Paolini C, Brennan D, Nardi C, Steinkuhler C, De Francesco R. Biochemistry. 38(17):5620–32, (1999)). Briefly, a three-lysine solubilizing tail was added at the 3′-end of the NS4A coding region. The cysteine in the P1 position of the NS4A-NS4B cleavage site (amino acid 1711) was changed to a glycine to avoid the proteolytic cleavage of the lysine tag. Furthermore, a cysteine to serine mutation was introduced by PCR at amino acid position 1454 to prevent the autolytic cleavage in the NS3 helicase domain. The variant DNA fragment was cloned in the pET21b bacterial expression vector (Novagen) and the NS3/4A complex was expressed in Escherichia coli strain BL21 (DE3) (Invitrogen) following the protocol described by P. Gallinari et al. (see Gallinari P, Brennan D, Nardi C, Brunetti M, Tomei L, Steinkuhler C, De Francesco R., J. Virol. 72(8):6758–69 (1998)) with modifications. Briefly, NS3/4A expression was induced with 0.5 mM Isopropyl β-D-1-thiogalactopyranoside (IPTG) for 22 hr at 20° C. A typical fermentation (10 L) yielded approximately 80 g of wet cell paste. The cells were resuspended in lysis buffer (10 mL/g) consisting of 25 mM N-(2-Hydroxyethyl)piperazine-N′-(2-Ethane Sulfonic acid) (HEPES), pH7.5, 20% glycerol, 500 mM Sodium Chloride (NaCl), 0.5% Triton-X100, 1 microgram/milliliter (“μg/mL”) lysozyme, 5 mM Magnesium Chloride (MgCl2), 1 ug/ml DnaseI, 5 mM β-Mercaptoethanol (βME), Protease inhibitor—Ethylenediamine Tetraacetic acid (EDTA) free (Roche), homogenized and incubated for 20 mins at 4° C. The homogenate was sonicated and clarified by ultra-centrifugation at 235000 g for 1 hr at 4° C. Imidazole was added to the supernatant to a final concentration of 15 mM and the pH adjusted to 8.0. The crude protein extract was loaded on a Nickel-Nitrilotriacetic acid (Ni-NTA) column pre-equilibrated with buffer B (25 mM HEPES, pH8.0, 20% glycerol, 500 mM NaCl, 0.5% Triton-X100, 15 mM imidazole, 5 mM βME). The sample was loaded at a flow rate of 1 mL/min. The column was washed with 15 column volumes of buffer C (same as buffer B except with 0.2% Triton-X100). The protein was eluted with 5 column volumes of buffer D (same as buffer C except with 200 mM Imidazole). […]

[1] = NS3/4A BMS strain, activity range symbols
[2] = NS3/4A BMS Strain, activity range classes

SMILES	IC50 [1] [nM]	IC50 [2] [nM]
COc1ccc2c(OC3CC4C(=O)NC5(C(=O)NS(=O)(=O)C6(C)CC6)CC5C=CCOCCCC(NC(=O)NC5CCCC5)C(=O)N4C3)nccc2c1 (centres unmarked) [Compound 36]	< 50	–
CCC1(S(=O)(=O)NC(=O)C23CC2C=CCCCOC(C)C(NC(=O)OCC(C)(C)C)C(=O)N2CC(Oc4nccc5cc(OC)ccc45)CC2C(=O)N3)CC1 (centres unmarked) [Compound 71]	< 50	–
COCC(=O)NC1CCCCCC=CC2CC2(C(=O)NS(=O)(=O)C2CC2)NC(=O)C2CC(Oc3nccc4ccccc34)CN2C1=O (centres unmarked) [Compound 24]	< 50	–
COc1ccc2c(OC3CC4C(=O)NC5(C(=O)NS(=O)(=O)C6(C)CC6)CC5C=CCCCOC(C)C(NC(=O)OCC(C)(C)C)C(=O)N4C3)nccc2c1 (centres unmarked) [Compound 67]	< 50	–
COc1ccc2c(O[C@@H]3C[C@H]4C(=O)N[C@]5(C(=O)NS(=O)(=O)C6CC6)C[C@H]5/C=C\CCCCC[C@H](NC(=O)OC(C)(C)C)C(=O)N4C3)nccc2c1 [Compound 17B, [4-Cyclopropanesulfonylaminocarbonyl-18-(6-methoxy-isoquinolin-1-yloxy)-2,15-dioxo-3,16-diaza-tricyclo[14.3.0.0^4,6]nonadec-7-en-14-yl]-carbamic acid tert-butyl ester]	< 50	–
O=C(N[C@H]1CCCCC/C=C\[C@@H]2C[C@@]2(C(=O)NS(=O)(=O)C2CC2)NC(=O)[C@@H]2C[C@@H](Oc3nccc4ccccc34)CN2C1=O)O[C@H]1CCOC1 [Compound 15, [4-Cyclopropanesulfonylaminocarbonyl-18-(isoquinolin-1-yloxy)-2,15-dioxo-3,16-diaza-tricyclo[14.3.0.0^4,6]nonadec-7-en-14-yl]-carbamic acid tetrahydro-furan-3-yl ester]	< 50	–
COc1ccc2c(OC3CC4C(=O)NC5(C(=O)NS(=O)(=O)C6CC6)CC5C=CCOCCCC(NC(=O)OC(C)(C)C(F)(F)F)C(=O)N4C3)nccc2c1 (centres unmarked) [Compound 39]	< 50	–
COc1ccc2c(OC3CC4C(=O)NC5(C(=O)NS(=O)(=O)C6(C)CC6)CC5C=CCOCCCC(NC(=O)OC(C)(C)C)C(=O)N4C3)nccc2c1 (centres unmarked) [Compound 29]	< 50	–
CCCC1(S(=O)(=O)NC(=O)[C@@]23C[C@H]2CCCCCCC[C@H](NC(=O)OC(C)(C)C)C(=O)N2C[C@H](Oc4nccc5ccccc45)C[C@H]2C(=O)N3)CC1 [Compound 7, [18-(Isoquinolin-1-yloxy)-2,15-dioxo-4-(1-propyl-cyclopropanesulfonylaminocarbonyl)-3,16-diaza-tricyclo[14.3.0.0^4,6]nonadec-14-yl]-carbamic acid tert-butyl ester]	< 50	–
COc1ccc2c(OC3CC4C(=O)NC5(C(=O)NS(=O)(=O)C6CC6)CC5C=CCOCCCC(NC(=O)OCC(C)(C)C)C(=O)N4C3)nccc2c1 (centres unmarked) [Compound 32]	< 50	–
COc1ccc2c(OC3CC4C(=O)NC5(C(=O)NS(=O)(=O)C6CC6)CC5C=CCOCCCC(NC(=O)OC(C)C)C(=O)N4C3)nccc2c1 (centres unmarked) [Compound 31]	< 50	–
COc1ccc2c(OC3CC4C(=O)NC5(C(=O)O)CC5C=CCCCCC(NC(=O)OC(C)(C)C)C(=O)N4C3)nccc2c1 (centres unmarked) [Compound 143]	–	50 to 500
CCC1(S(=O)(=O)NC(=O)C23CC2C=CCOCCCC(NC(=O)OC(C)C)C(=O)N2CC(Oc4nccc5cc(OC)ccc45)CC2C(=O)N3)CC1 (centres unmarked) [Compound 37]	< 50	–
CC(C)(C)OC(=O)NC1CCCCCC=CC2CC2(C(=O)NS(=O)(=O)C2CC2)NC(=O)C2CC(Oc3nc(Cl)cc4ccccc34)CN2C1=O (centres unmarked) [Compound 57]	< 50	–
CCC1(S(=O)(=O)NC(=O)C23CC2C=CCCCOC(C)C(NC(=O)OC(C)(C)C)C(=O)N2CC(Oc4nccc5cc(OC)ccc45)CC2C(=O)N3)CC1 (centres unmarked) [Compound 70]	< 50	–
COc1ccc2c(OC3CC4C(=O)NC5(C(=O)NS(=O)(=O)C6CC6)CC5C=CCOCCCC(NC(=O)OC(C)(C)C)C(=O)N4C3)nccc2c1 (centres unmarked) [Compound 28, [4-Cyclopropanesulfonylaminocarbonyl-18-(6-methoxy-isoquinolin-1-yloxy)-2,15-dioxo-10-oxa-3,16-diaza-tricyclo[14.3.0.0^4,6]nonadec-7-en-14-yl]-carbamic acid tert-butyl ester]	< 50	–
COc1ccc2c(OC3CC4C(=O)NC5(C(=O)O)CC5C=CCCCSCC(NC(=O)OC(C)(C)C)C(=O)N4C3)nccc2c1 (centres unmarked) [Compound 18A, 14-tert-Butoxycarbonylamino-18-(6-methoxy-isoquinolin-1-yloxy)-2,15-dioxo-12-thia-3,16-diaza-tricyclo[14.3.0.0^4,6]nonadec-7-ene-4-carboxylic acid]	–	50 to 500
CC1(OC(=O)N[C@H]2CCCCC/C=C\[C@@H]3C[C@@]3(C(=O)NS(=O)(=O)C3CC3)NC(=O)[C@@H]3C[C@@H](Oc4nccc5ccccc45)CN3C2=O)CCC1 [Compound 56, [(Z)-(1S,4R,14S,18R)-4-cyclopropanesulfonylaminocarbonyl-18-(isoquinolin-1-yloxy)-2,15-dioxo-3,16-diaza-tricyclo[14.3.0.0^4,6]nonadec-7-en-14-yl]-carbamic acid 1-methyl-cyclobutyl ester]	< 50	–
CCC1(S(=O)(=O)NC(=O)C23CC2C=CCCCSCC(NC(=O)OCC(C)(C)C)C(=O)N2CC(Oc4nccc5cc(OC)ccc45)CC2C(=O)N3)CC1 (centres unmarked) [Compound 45]	< 50	–
CCCNC(=O)NC1CCCCCC=CC2CC2(C(=O)NS(=O)(=O)C2CC2)NC(=O)C2CC(Oc3nccc4ccccc34)CN2C1=O (centres unmarked) [Compound 23]	< 50	–
COc1ccc2c(OC3CC4C(=O)NC5(C(=O)NS(=O)(=O)C6(C)CC6)CC5C=CCCCSCC(NC(=O)OCC(C)(C)C)C(=O)N4C3)nccc2c1 (centres unmarked) [Compound 42]	< 50	–
CCC1(S(=O)(=O)NC(=O)C23CC2C=CCCCCCC(NC(=O)OC(C)(C)C)C(=O)N2CC(Oc4nccc5cc(OC)ccc45)CC2C(=O)N3)CC1 (centres unmarked) [Compound 54]	< 50	–
CC(C)(C)OC(=O)N[C@H]1CN(S(=O)(=O)c2ccccc2[N+](=O)[O-])CCC/C=C\[C@@H]2C[C@@]2(C(=O)O)NC(=O)[C@@H]2C[C@@H](Oc3nccc4ccccc34)CN2C1=O [Compound 144]	–	500 to 5000
COc1ccc2c(OC3CC4C(=O)NC5(C(=O)NS(=O)(=O)C6(C)CC6)CC5C=CCOCCCC(NC(=O)OC(C)C)C(=O)N4C3)nccc2c1 (centres unmarked) [Compound 35]	< 50	–
COc1ccc2c(OC3CC4C(=O)NC5(C(=O)NS(=O)(=O)C6CC6)CC5C=CCCCSCC(NC(=O)OC(C)C)C(=O)N4C3)nccc2c1 (centres unmarked) [Compound 74]	< 50	–
COc1ccc2c(OC3CC4C(=O)NC5(C(=O)NS(=O)(=O)C6(C)CC6)CC5C=CCCCS(=O)(=O)CC(NC(=O)OC(C)(C)C)C(=O)N4C3)nccc2c1 (centres unmarked) [Compound 49]	50 to 500	–
